Reference: patent publication US6165441A, “Method of diagnosis and photodynamic therapy of tumours” (Nycomed Amersham Sorin SRL, priority 1995, dated 2000)

Tests used:
[1] = Biodistribution of ^131 I radioactivity in excised tissues after i.v. injection (pharmacokinetic studies, gamma counter); format: in vivo, Balb/c mice; settings: for Recovery from BRAIN / Recovery from KIDNEY / Recovery from LIVER / Recovery from LUNG / Recovery from MUSCLE / Recovery from SPLEEN: 0.096 MBq/g in DPPC liposomes, average of three mice ± s.d.
Description: (§1) Experimental tests were carried out in Balb/c mice affected by a MS-2 fibrosarcoma. This tumour model had been previously used for extensive PDT studies with unlabelled ZnPc.
(§2) For tumour implantation 2×10^5 cells in 0.2 ml of sterile physiological solution were intramuscularly injected into the right hind leg of female Balb/c mice having a body wt. of 20-22 g. All the experiments were started on the eighth day after tumour implantation, when the external diameter was ca. 0.8 cm and no detectable spontaneous tumour necrosis had generally occurred. When necessary, mice were anesthetized by i.p. injection of Ketalar (150 mg/kg).
^131 I--Zn(II)-phthalocyanine was incorporated into small unilamellar vesicles of DPPC following the procedure described by Valduga et al., J.Inorg.Biochem. (1987), 25-59.
(§3) Balb/c mice bearing the MS-2 fibrosarcoma were injected in the tail vein with ^131 I--ZnPc at does between 0.024 and 0.096 MBq/g. At predetermined times up to 24 hours after injection, the whole body of the mice was scanned with a Gamma Camera General Electric Stargem in order to ensure the radioactivity levels at different anatomical sites. Then, the mice were sacrificed by prolonged exposure to ether vapours; the blood, tumour and selected normal tissues (muscle, skin, lung, liver, spleen, kidney, brain) were rapidly taken. The blood was centrifuged to remove the erythrocytes and the radioactivity in the plasma (100 μl) was analyzed. Moreover, tissues were washed with physiological solution, weighed, introduced into RIA test tubes and centrifuged for 10 minutes and 2000 g. The radioactivity was collected for 1 minute by a gamma counter (Packard Selektronik Design). A different group of mice was injected as above described, sacrificed at 3 hours, 15 hours, 24 hours, 48 hours and 96 hours after injection (three mice at each time) and the radioactivity in plasma and tissues homogenates was determined.

[2] = Clearance of ^131 I--ZnPc from serum; format: in vivo, Balb/c mice
Description: as §3

MS-2 fibrosarcoma = test: Tumour accumulation and tumour/muscle radioactivity ratio; format: in vivo, Balb/c mice; settings: for Recovery from TUMOUR: average of three mice ± s.d.; for Kinetics of tumour uptake and clearance, ^131 I--ZnPc versus ZnPc: mouse, in vivo
Description: as §1, §2, §3
FIG. 2 is an histogram showing the ratio between the tumour/muscle radioactivity of ^131 I--ZnPc at different times after injection of 0.096 MBq/g ^131 I--ZnPc in DPPC liposomes; averaged ratios for three independently analyzed mice±s.d..
FIG. 3 is an histogram showing the ratio between the tumour/muscle radioactivity of ^131 I--ZnPc at different concentrations at 24 hours after injection of ^131 I--ZnPc in DPPC liposomes; averaged ratio for three independently analyzed mice±s.d..

[3] = In vivo whole body Gamma Camera scanning of radioactivity distribution; design: species or system Balb/c mice
Description: as §3

tumour = settings: cited from earlier work
[4] = i.v. 0.096 MBq/g in DPPC liposomes

^131 I--Zn(II)-phthalocyanine [^131 I--ZnPc]
Recovery from BRAIN ([1]; 3 h): 11.7 ± 0.1 CPM/mg of tissue
Recovery from KIDNEY ([1]; 3 h): 156.9 ± 9.7 CPM/mg of tissue
Recovery from LIVER ([1]; 3 h): 984.2 ± 15.7 CPM/mg of tissue
Recovery from LUNG ([1]; 3 h): 168.3 ± 5.6 CPM/mg of tissue
Recovery from MUSCLE ([1]; 3 h): 41.1 ± 3.6 CPM/mg of tissue
Recovery from SPLEEN ([1]; 3 h): 600.9 ± 8.1 CPM/mg of tissue
Recovery from BRAIN ([1]; 15 h): 5.2 ± 1.5 CPM/mg of tissue
Recovery from KIDNEY ([1]; 15 h): 84.4 ± 8.4 CPM/mg of tissue
Recovery from LIVER ([1]; 15 h): 871.1 ± 146.8 CPM/mg of tissue
Recovery from LUNG ([1]; 15 h): 76.2 ± 31.4 CPM/mg of tissue
Recovery from MUSCLE ([1]; 15 h): 22.4 ± 9.3 CPM/mg of tissue
Recovery from SPLEEN ([1]; 15 h): 503.7 ± 46.8 CPM/mg of tissue
Recovery from BRAIN ([1]; 24 h): 4.3 ± 0.6 CPM/mg of tissue
Recovery from KIDNEY ([1]; 24 h): 77.3 ± 11.2 CPM/mg of tissue
Recovery from LIVER ([1]; 24 h): 1043.7 ± 72.5 CPM/mg of tissue
Recovery from LUNG ([1]; 24 h): 83.3 ± 12.4 CPM/mg of tissue
Recovery from MUSCLE ([1]; 24 h): 23.7 ± 2.0 CPM/mg of tissue
Recovery from SPLEEN ([1]; 24 h): 635.1 ± 65.8 CPM/mg of tissue
Recovery from BRAIN ([1]; 48 h): 3.4 CPM/mg of tissue
Recovery from KIDNEY ([1]; 48 h): 59.4 CPM/mg of tissue
Recovery from LIVER ([1]; 48 h): 849.1 ± 90.3 CPM/mg of tissue
Recovery from LUNG ([1]; 48 h): 73.4 CPM/mg of tissue
Recovery from MUSCLE ([1]; 48 h): 22.3 CPM/mg of tissue
Recovery from SPLEEN ([1]; 48 h): 549.7 CPM/mg of tissue
Recovery from BRAIN ([1]; 96 h): 2.0 ± 0.4 CPM/mg of tissue
Recovery from KIDNEY ([1]; 96 h): 61.6 ± 16.8 CPM/mg of tissue
Recovery from LIVER ([1]; 96 h): 831.9 ± 52.5 CPM/mg of tissue
Recovery from LUNG ([1]; 96 h): 52.1 ± 6.9 CPM/mg of tissue
Recovery from MUSCLE ([1]; 96 h): 15.8 ± 2.5 CPM/mg of tissue
Recovery from SPLEEN ([1]; 96 h): 413.0 ± 42.7 CPM/mg of tissue
Amounts recovered from muscle ([1]; at all times): small amounts of phthalocyanine are recovered from muscle at all times
Elimination from liver and spleen ([1]; during the initial four days): relatively slow elimination at least during the initial four days
Amounts recovered from brain ([1]; i.v. in DPPC liposomes): minimal amounts
Levels in kidneys ([1]; i.v. in DPPC liposomes): comparatively low levels observed in kidneys
Recovery in the liver and spleen ([1]; i.v. in DPPC liposomes): very high in the liver and spleen
Toxic effects on the central nervous system ([1]; inferred from minimal brain recovery): unlikely
Amount cleared via the kidneys ([1]; main elimination via bile-gut pathway): only minor amounts cleared via the kidneys
Amount accumulated by liver and spleen ([1]; mouse, in vivo): large amount accumulated by liver and spleen
Accumulation in the liver compared with ZnPc ([1]; short post-injection times): greater accumulation
Liver concentration relative to tumour ([1]; short post-injection times): ca. 7 fold
Clearance rate from serum [2, 4]: particularly fast during the initial 15 hours after administration
Elimination from mouse serum ([2]; i.v. 0.096 MBq/g in DPPC liposomes, within 96 hours): almost completely eliminated from mouse serum within 96 hours
Clearance profile from the serum ([2]; mouse, in vivo): apparently polyphasic clearance from the serum
Initial radioactivity disappearing from serum ([2]; within the initial 24 hours post-injection, almost): ~80%
Time of maximum tumour-to-muscle concentration ratio (MS-2 fibrosarcoma; 0.096 MBq/g in DPPC liposomes, FIG. 2): 15 h
Tumour-to-muscle concentration ratio over the studied time interval (MS-2 fibrosarcoma; 0.096 MBq/g in DPPC liposomes, after 15 hours, FIG. 2): remains at an essentially constant level throughout the studied time interval
Recovery from TUMOUR (MS-2 fibrosarcoma; 3 h, 0.096 MBq/g in DPPC liposomes): 140.3 ± 38.6 CPM/mg of tissue
Recovery from TUMOUR (MS-2 fibrosarcoma; 15 h, 0.096 MBq/g in DPPC liposomes): 182.7 ± 16.0 CPM/mg of tissue
Recovery from TUMOUR (MS-2 fibrosarcoma; 24 h, 0.096 MBq/g in DPPC liposomes): 212.9 ± 8.6 CPM/mg of tissue
Effect of injected dose on tumour/muscle ratio (MS-2 fibrosarcoma; 24 hours after administration, 0.024 to 0.096 MBq/g, FIG. 3): affected to a minor extent by the injected dose
Recovery from TUMOUR (MS-2 fibrosarcoma; 48 h, 0.096 MBq/g in DPPC liposomes): 180.7 CPM/mg of tissue
Recovery from TUMOUR (MS-2 fibrosarcoma; 96 h, 0.096 MBq/g in DPPC liposomes): 162.2 ± 19.5 CPM/mg of tissue
Tumour localization (MS-2 fibrosarcoma; ^131 I label): efficient and selective tumour localizer
Time of maximal tumour concentration (MS-2 fibrosarcoma; after ca.): ca. 24 hours
Rate of uptake by the tumour (MS-2 fibrosarcoma; compared with several normal tissues): relatively low rate of uptake by the tumour as compared with several normal tissues
Time of maximum accumulation in tumour (MS-2 fibrosarcoma; [4]): 24 h
Kinetics of tumour uptake and clearance, ^131 I--ZnPc versus ZnPc (MS-2 fibrosarcoma): quite similar
Selectivity of tumour targeting (tumour/muscle ratio) compared with ZnPc (MS-2 fibrosarcoma; tumour/muscle ratios of phthalocyanine recovery): almost twice higher selectivity of tumour targeting
Localization of radioactivity in the whole animal ([3]; at all examined time intervals): strictly localized at the level of liver and tumour with no general delocalization throughout the organism
Dissociation of ^131 I from the phthalocyanine in vivo ([3]; inferred from whole-animal distribution): unlikely that ^131 I is dissociated from the phthalocyanine to any significant extent

[Zn+2].c1ccc2c(c1)-c1nc-2nc2[n-]c(nc3nc([n-]c4nc(n1)-c1ccccc1-4)-c1ccccc1-3)c1ccccc21 [ZnPc, Zn(II)-phthalocyanine]
Kinetics of tumour uptake and clearance, ^131 I--ZnPc versus ZnPc (MS-2 fibrosarcoma): quite similar
Selectivity of tumour accumulation (tumour; in vivo): enhanced selectivity of tumour accumulation
Lowest phototherapeutically active dose (tumour; liposome-incorporated, doses as low as): 0.15 mg/kg body wt.
